From ChEMBL document CHEMBL1201862, “PubChem BioAssay data set” (2004) come the findings set out here.

Test systems include A549; ACHN; COLO 205; EKVX; HCT-15; K562; LOX IMVI; MDA-N; NCI-H23; NCI-H522; OVCAR-3; OVCAR-5; OVCAR-8; PC-3; SF-295; SF-539; SK-MEL-5; SNB-75; IGROV-1.
Assay in all cases: growth of human tumour cells (NCI), 48 h

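Results reflect a 48-hour exposure of cells in 96-well plates to compound at five concentrations. The concentration for 50% growth inhibition is given as GI50.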 Calls of active or inactive are those of the source. Cut-off read from the data, not from the text of the source: active = GI50 up to about 1.1 µM and inactive = higher.

In the case of `Nc1nc(N)c2cc(Sc3ccc4ccccc4c3)ccc2n1`, the GI50 was 0.343 µM (active) with A549; 0.509 µM (active) with ACHN; 1.63 µM (inactive) in the experiment on COLO 205; 2.96 µM (inactive) in the experiment with EKVX; 0.643 µM with HCT-15; 0.211 µM (active) in the experiment with K562. In addition, the GI50 with LOX IMVI is 0.627 µM (active); in the experiment on MDA-N it was 0.733 µM (active); in the experiment on NCI-H23 it was 5.82 µM (inactive); with NCI-H522, 2.2 µM (inactive); with OVCAR-3 it was 5.89 µM (inactive); in the experiment on OVCAR-5, 3.48 µM (inactive). For the same compound, the GI50 with OVCAR-8 is 1 µM (active); in the experiment on PC-3, 1.87 µM (inactive); in the experiment on SF-295, 0.509 µM (active); in the experiment on SF-539, 1.73 µM (inactive); with SK-MEL-5, 0.845 µM (active); with SNB-75, 14.4 µM (inactive).
As to `CC(C)CCCC(C)[C@H]1CC[C@H]2n3c(nc4ccccc43)CCC[C@]12C` (stereo not given in full), the GI50 in the experiment with A549 was 20.1 µM (inactive); in the experiment on COLO 205, 11.1 µM (inactive); with HCT-15, 15 µM; in the experiment with IGROV-1, 17 µM (inactive); in the experiment on K562, 15.6 µM (inactive); with LOX IMVI, 32.7 µM (inactive). The GI50 in the experiment with MDA-N was 16.2 µM (inactive); in the experiment on NCI-H23, 16.9 µM (inactive); in the experiment with OVCAR-3 it was 17.4 µM (inactive); in the experiment on OVCAR-8, 17.1 µM (inactive); in the experiment with PC-3, 18.6 µM (inactive); with SF-295, 16.8 µM (inactive). The results for the GI50 in the experiment on SF-539, in the experiment on SK-MEL-5 and in the experiment on SNB-75 were 18.8 µM (inactive), 16.4 µM (inactive) and 14.6 µM (inactive), respectively.
Regarding `COC(=O)C1(C)CCC(c2ccc(C)cc2)=C(CC(=O)O)C1` (stereo not given), the GI50 with A549 was > 100 µM (inactive); in the experiment with ACHN it was > 100 µM (inactive); in the experiment with COLO 205, > 100 µM (inactive); in the experiment on EKVX, > 100 µM (inactive); with HCT-15 it was greater than 100 µM; with IGROV-1 it was > 100 µM (inactive). Also, the GI50 in the experiment on K562, with LOX IMVI, in the experiment on MDA-N, in the experiment with NCI-H23, in the experiment with NCI-H522 and in the experiment on OVCAR-3 was > 100 µM (inactive) each time. Also, the GI50 with OVCAR-5, in the experiment on OVCAR-8, in the experiment with PC-3, with SF-295, in the experiment on SF-539 and in the experiment on SK-MEL-5 was > 100 µM (inactive) throughout. Also, the GI50 in the experiment on SNB-75 is > 100 µM (inactive).
On to `Cc1ccc(O)c(-c2cc(-c3cccc(Cl)c3)c(C#N)c(N)n2)c1`, for which the GI50 in the experiment on A549 was 18.9 µM (inactive); with ACHN it was 17.9 µM (inactive); with COLO 205, 15.7 µM (inactive); with EKVX, 14 µM (inactive); with HCT-15 it was 12.2 µM; in the experiment on IGROV-1 it was 6.93 µM (inactive). Also, the GI50 in the experiment on K562 is 21.5 µM (inactive); in the experiment with LOX IMVI it was 16.7 µM (inactive); in the experiment on MDA-N it was 14.5 µM (inactive); in the experiment with NCI-H23 it was 25.1 µM (inactive); in the experiment on NCI-H522 it was 12.5 µM (inactive); in the experiment on OVCAR-3, 38.5 µM (inactive). In addition, the GI50 in the experiment on OVCAR-5 was 24 µM (inactive); in the experiment with OVCAR-8, 31 µM (inactive); in the experiment on PC-3, 23.3 µM (inactive); in the experiment on SF-295, 14.8 µM (inactive); in the experiment with SF-539, 19.5 µM (inactive); in the experiment on SK-MEL-5, 14.4 µM (inactive).
